# Results from the supplement of paper PMC11616607.
# Assays:
# Assay in all cases: drug sensitivity score (DSS) from 5-point dose-response viability curve (DSS (area-under-curve based score)); higher = more sensitive (stronger growth inhibition or killing); extreme values may be limits of the assay
# Conditions in all cases: exposure time: 72 h; concentration range: 5 concentrations over 10,000-fold range
# JHOS2 = test system: JHOS2
# Procedure, shortened: (§1)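 Drugs in DMSO or water were acoustically dispensed (Echo 550) into 384-well plates at five concentrations across a 10,000-fold range. Ovarian cancer and normal ovarian cells (1,500 per well) were then added, incubated for 3 days at 37°C with 5% CO2, and read for viability by CellTiter-Glo luminescence on a PHERAstar FS. From these readings, Breeze software derived a drug sensitivity score per cell line and drug, with higher values meaning more sensitive and zero meaning no response.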
# HOSE1C = test system: HOSE1C
# Procedure, shortened: as §1
# COV362 = test system: COV362
# Procedure, shortened: as §1
# OVCAR8 = test system: OVCAR8
# Procedure, shortened: as §1
# OVCAR5 = test system: OVCAR5
# Procedure, shortened: as §1
# Ovsaho = test system: Ovsaho
# Procedure, shortened: as §1
# CAOV3 = test system: CAOV3
# Procedure, shortened: as §1
# HOSE2C = test system: HOSE2C
# Procedure, shortened: as §1
# OV90 = test system: OV90
# Procedure, shortened: as §1
# Kuramochi = test system: Kuramochi
# Procedure, shortened: as §1
# OVCAR4 = test system: OVCAR4
# Procedure, shortened: as §1
# COV318 = test system: COV318
# Procedure, shortened: as §1
smiles,measurement,setting,value
Cc1ccc(Nc2nccc(N(C)c3ccc4c(C)n(C)nc4c3)n2)cc1S(N)(=O)=O [Pazopanib],drug sensitivity score,JHOS2,0
same,drug sensitivity score,HOSE1C,0
same,drug sensitivity score,COV362,0
same,drug sensitivity score,OVCAR8,0
same,drug sensitivity score,OVCAR5,0
same,drug sensitivity score,Ovsaho,0
same,drug sensitivity score,CAOV3,0
same,drug sensitivity score,HOSE2C,0
same,drug sensitivity score,OV90,0
same,drug sensitivity score,Kuramochi,0
same,drug sensitivity score,OVCAR4,0
same,drug sensitivity score,COV318,0.1
Nc1nc2[nH]cc(CCc3ccc(C(=O)N[C@@H](CCC(=O)O)C(=O)O)cc3)c2c(=O)[nH]1 [Pemetrexed],drug sensitivity score,JHOS2,0
same,drug sensitivity score,HOSE1C,22.9
same,drug sensitivity score,COV362,12.7
same,drug sensitivity score,OVCAR8,18.2
same,drug sensitivity score,OVCAR5,7.6
same,drug sensitivity score,Ovsaho,6.1
same,drug sensitivity score,CAOV3,14.1
same,drug sensitivity score,HOSE2C,20.4
same,drug sensitivity score,OV90,3.7
same,drug sensitivity score,Kuramochi,5.8
same,drug sensitivity score,OVCAR4,4.2
same,drug sensitivity score,COV318,0
OC[C@H]1O[C@@H](n2cnc3c2N=CNC[C@H]3O)C[C@@H]1O [Pentostatin],drug sensitivity score,JHOS2,0
same,drug sensitivity score,HOSE1C,0
same,drug sensitivity score,COV362,0
same,drug sensitivity score,OVCAR8,0
same,drug sensitivity score,OVCAR5,0
same,drug sensitivity score,Ovsaho,0
same,drug sensitivity score,CAOV3,0
same,drug sensitivity score,HOSE2C,1.5
same,drug sensitivity score,OV90,0
same,drug sensitivity score,Kuramochi,0
same,drug sensitivity score,OVCAR4,0
same,drug sensitivity score,COV318,0
CCCCCCCCCCCCCCCCCCOP(=O)([O-])OC1CC[N+](C)(C)CC1 [Perifosine],drug sensitivity score,JHOS2,0
same,drug sensitivity score,HOSE1C,0
same,drug sensitivity score,COV362,0
same,drug sensitivity score,OVCAR8,0
same,drug sensitivity score,OVCAR5,0
same,drug sensitivity score,Ovsaho,0
same,drug sensitivity score,CAOV3,0
same,drug sensitivity score,HOSE2C,0
same,drug sensitivity score,OV90,0
same,drug sensitivity score,Kuramochi,0
same,drug sensitivity score,OVCAR4,0
same,drug sensitivity score,COV318,0
NS(=O)(=O)OC[C@@H]1C[C@@H](n2ccc3c(N[C@H]4CCc5ccccc54)ncnc32)C[C@@H]1O [Pevonedistat],drug sensitivity score,JHOS2,15
same,drug sensitivity score,HOSE1C,17.2
same,drug sensitivity score,COV362,8.7
same,drug sensitivity score,OVCAR8,16.3
same,drug sensitivity score,OVCAR5,6.3
same,drug sensitivity score,Ovsaho,6.1
same,drug sensitivity score,CAOV3,25.6
same,drug sensitivity score,HOSE2C,22.6
same,drug sensitivity score,OV90,16.2
same,drug sensitivity score,Kuramochi,7.8
same,drug sensitivity score,OVCAR4,2.6
same,drug sensitivity score,COV318,3.5
FC(F)(F)c1ccc(CNc2ccc(Cc3c[nH]c4ncc(Cl)cc34)cn2)cn1 [Pexidartinib],drug sensitivity score,JHOS2,5
same,drug sensitivity score,HOSE1C,0
same,drug sensitivity score,COV362,0
same,drug sensitivity score,OVCAR8,1.8
same,drug sensitivity score,OVCAR5,2.3
same,drug sensitivity score,Ovsaho,0.1
same,drug sensitivity score,CAOV3,0.8
same,drug sensitivity score,HOSE2C,0
same,drug sensitivity score,OV90,0.7
same,drug sensitivity score,Kuramochi,0.6
same,drug sensitivity score,OVCAR4,1.3
same,drug sensitivity score,COV318,0.7
CS(=O)(=O)N1CCN(Cc2cc3nc(-c4cccc5[nH]ncc45)nc(N4CCOCC4)c3s2)CC1 [Pictilisib],drug sensitivity score,JHOS2,3.8
same,drug sensitivity score,HOSE1C,6.8
same,drug sensitivity score,COV362,5.9
same,drug sensitivity score,OVCAR8,8.3
same,drug sensitivity score,OVCAR5,12.1
same,drug sensitivity score,Ovsaho,9.5
same,drug sensitivity score,CAOV3,9.8
same,drug sensitivity score,HOSE2C,8.2
same,drug sensitivity score,OV90,6.2
same,drug sensitivity score,Kuramochi,10.6
same,drug sensitivity score,OVCAR4,5.3
same,drug sensitivity score,COV318,5.3
CC[C@@H]1C(=O)OC[C@@H]1Cc1cncn1C [Pilocarpine],drug sensitivity score,JHOS2,0.5
same,drug sensitivity score,HOSE1C,0
same,drug sensitivity score,COV362,0
same,drug sensitivity score,OVCAR8,0
same,drug sensitivity score,OVCAR5,0
same,drug sensitivity score,Ovsaho,0
same,drug sensitivity score,CAOV3,0
same,drug sensitivity score,HOSE2C,0
same,drug sensitivity score,OV90,0
same,drug sensitivity score,Kuramochi,0
same,drug sensitivity score,OVCAR4,0
same,drug sensitivity score,COV318,0
CC(C)N(C[C@H]1O[C@@H](n2cnc3c(N)ncnc32)[C@H](O)[C@@H]1O)[C@H]1C[C@@H](CCc2nc3cc(C(C)(C)C)ccc3[nH]2)C1 [Pinometostat],drug sensitivity score,JHOS2,0
same,drug sensitivity score,HOSE1C,0
same,drug sensitivity score,COV362,0
same,drug sensitivity score,OVCAR8,0
same,drug sensitivity score,OVCAR5,0
same,drug sensitivity score,Ovsaho,0
same,drug sensitivity score,CAOV3,0
same,drug sensitivity score,HOSE2C,0
same,drug sensitivity score,OV90,0
same,drug sensitivity score,Kuramochi,0
same,drug sensitivity score,OVCAR4,0
same,drug sensitivity score,COV318,0
Cc1ccc(=O)n(-c2ccccc2)c1 [Pirfenidone],drug sensitivity score,JHOS2,0
same,drug sensitivity score,HOSE1C,0
same,drug sensitivity score,COV362,0
same,drug sensitivity score,OVCAR8,0
same,drug sensitivity score,OVCAR5,0
same,drug sensitivity score,Ovsaho,0
same,drug sensitivity score,CAOV3,0
same,drug sensitivity score,HOSE2C,0
same,drug sensitivity score,OV90,0
same,drug sensitivity score,Kuramochi,0
same,drug sensitivity score,OVCAR4,0
same,drug sensitivity score,COV318,0
NCCNc1ccc(NCCN)c2c1C(=O)c1ccncc1C2=O [Pixantrone],drug sensitivity score,JHOS2,0
same,drug sensitivity score,HOSE1C,0
same,drug sensitivity score,COV362,0
same,drug sensitivity score,OVCAR8,0.4
same,drug sensitivity score,OVCAR5,0
same,drug sensitivity score,Ovsaho,0.3
same,drug sensitivity score,CAOV3,0
same,drug sensitivity score,HOSE2C,0
same,drug sensitivity score,OV90,0.1
same,drug sensitivity score,Kuramochi,0.1
same,drug sensitivity score,OVCAR4,0
same,drug sensitivity score,COV318,0
c1cc(CN2CCCNCCNCCCNCC2)ccc1CN1CCCNCCNCCCNCC1 [Plerixafor],drug sensitivity score,JHOS2,0
same,drug sensitivity score,HOSE1C,0
same,drug sensitivity score,COV362,0
same,drug sensitivity score,OVCAR8,0
same,drug sensitivity score,OVCAR5,0
same,drug sensitivity score,Ovsaho,0
same,drug sensitivity score,CAOV3,0
same,drug sensitivity score,HOSE2C,0
same,drug sensitivity score,OV90,0
same,drug sensitivity score,Kuramochi,0
same,drug sensitivity score,OVCAR4,0
same,drug sensitivity score,COV318,0
CO[C@H](C(=O)[C@@H](O)[C@@H](C)O)[C@@H]1Cc2cc3cc(O[C@H]4C[C@@H](O[C@@H]5C[C@@H](O)[C@H](O)[C@@H](C)O5)[C@H](O)[C@@H](C)O4)c(C)c(O)c3c(O)c2C(=O)[C@H]1O[C@H]1C[C@@H](O[C@@H]2C[C@@H](O)[C@@H](O[C@@H]3C[C@](C)(O)[C@H](O)[C@@H](C)O3)[C@@H](C)O2)[C@H](O)[C@@H](C)O1 [Plicamycin],drug sensitivity score,JHOS2,0
same,drug sensitivity score,HOSE1C,0
same,drug sensitivity score,COV362,2.9
same,drug sensitivity score,OVCAR8,19.4
same,drug sensitivity score,OVCAR5,16.5
same,drug sensitivity score,Ovsaho,0.1
same,drug sensitivity score,CAOV3,8.8
same,drug sensitivity score,HOSE2C,0
same,drug sensitivity score,OV90,19.1
same,drug sensitivity score,Kuramochi,0
same,drug sensitivity score,OVCAR4,5.7
same,drug sensitivity score,COV318,0
Nc1cccc2c1C(=O)N(C1CCC(=O)NC1=O)C2=O (stereo not drawn) [Pomalidomide],drug sensitivity score,JHOS2,0
same,drug sensitivity score,HOSE1C,0
same,drug sensitivity score,COV362,0
same,drug sensitivity score,OVCAR8,0
same,drug sensitivity score,OVCAR5,0
same,drug sensitivity score,Ovsaho,0
same,drug sensitivity score,CAOV3,0
same,drug sensitivity score,HOSE2C,0
same,drug sensitivity score,OV90,0
same,drug sensitivity score,Kuramochi,0
same,drug sensitivity score,OVCAR4,0
same,drug sensitivity score,COV318,0
